The assay concerns the target CDK2 (human) (UniProt P24941). In words: Enzyme Assay.

As for `CC(C)c1[nH]ncc1-c1ccnc(NCCc2cccnc2)c1`, the IC50 is less than 5 µM.

`Cc1n[nH]cc1-c1ccnc(NCc2cc(F)cc(F)c2)n1` yielded an IC50 of less than 5 µM.

Take `Cc1ccccc1CNc1cc(-c2cn[nH]c2C2CC2)ccn1`: the IC50 was less than 5 µM.

With `CC(=O)NCCNc1nccc(-c2c[nH]nc2C)n1`, the 50% inhibitory concentration (IC50) is less than 15 µM.

Turning to `c1cc(-c2cn[nH]c2C2CCCC2)cc(NC2CC2)n1`, the half-inhibitory concentration (IC50) is less than 1 µM.

Turning to `CC(C)c1[nH]ncc1-c1ccnc(NCc2ccc3c(c2)OCO3)c1`, the IC50 was less than 5 µM.

The compound `CC(C)c1[nH]ncc1-c1ccnc(NCc2cc(F)cc(F)c2)c1` displayed a half-maximal inhibitory concentration (IC50) of less than 5 µM.

On to `CC(C)c1[nH]ncc1-c1ccnc(NCC2CCCCCC2)c1`, for which the half-maximal inhibitory concentration (IC50) is less than 5 µM.

In the case of `CC(C)c1n[nH]cc1-c1ccnc(NC2Cc3ccccc3C2)n1`, the IC50 is less than 0.5 µM.

The compound `Cc1n[nH]cc1-c1ccnc(NC2CCCCCC2)n1` gave an IC50 of less than 5 µM.

Compound `CC(C)CCNc1cc(-c2cn[nH]c2C(C)C)ccn1` yielded an IC50 of less than 5 µM.

In turn, `CC(C)c1[nH]ncc1-c1ccnc(NCC2CC2)c1` gave an IC50 of less than 5 µM.

`Cc1ccc(CNc2cc(-c3cn[nH]c3C3CCCC3)ccn2)cc1`: the IC50 was less than 5 µM.

`c1cc(-c2cn[nH]c2C2CCCC2)cc(NC2CCCCC2)n1` returned an IC50 of less than 1 µM.

Consider `CC(C)c1n[nH]cc1-c1ccnc(N[C@@H]2CCc3ccccc32)n1`, for which the concentration for half-maximal inhibition (IC50) is less than 5 µM.

`Cc1n[nH]cc1-c1ccnc(NCCOc2ccccc2)n1` gave an IC50 of less than 15 µM.

As for `CC(C)c1n[nH]cc1-c1ccnc(NCc2ccc(N(C)C)cc2)n1`, the half-inhibitory concentration (IC50) is less than 5 µM.

For the compound `COCC(C)Nc1nccc(-c2c[nH]nc2C(C)C)n1` (centres undefined), the IC50 is less than 1 µM.

In the case of `CC(C)c1[nH]ncc1-c1ccnc(NCC2CCCCC2)c1`, the IC50 is less than 5 µM.

For `CC(C)c1n[nH]cc1-c1ccnc(NC2CCN(C)CC2)n1`, the half-maximal inhibitory concentration (IC50) is less than 1 µM.

Compound `c1cc(-c2cn[nH]c2C2CCCC2)cc(NC2CCCCCC2)n1` displayed a half-maximal inhibitory concentration (IC50) of less than 1 µM.

Compound `CC(C)c1[nH]ncc1-c1ccnc(NCC2CCCO2)c1` (centres undefined) yielded an IC50 of less than 10 µM.

Turning to `Cc1n[nH]cc1-c1ccnc(NC2CCN(Cc3ccccc3)C2)n1` (centres undefined), the IC50 was less than 10 µM.

As for `Cc1n[nH]cc1-c1ccnc(NCCc2c[nH]c3ccccc23)n1`, the IC50 was less than 10 µM.

For `Cc1nnc(CCNc2nccc(-c3c[nH]nc3C(C)C)n2)[nH]1`, the half-inhibitory concentration (IC50) was less than 5 µM.

Regarding `CC(C)c1n[nH]cc1-c1ccnc(NCCCN(C)c2ccccc2)n1`, the IC50 is less than 5 µM.

With `CC(CCc1ccccc1)Nc1nccc(-c2c[nH]nc2C(C)C)n1` (centres undefined), the concentration for half-maximal inhibition (IC50) was less than 5 µM.

The compound `c1cc(-c2cn[nH]c2C2CCCC2)cc(NC2CCCC2)n1` displayed an IC50 of less than 0.5 µM.

Take `CCCCNc1cc(-c2cn[nH]c2C(C)C)ccn1`: the IC50 was less than 5 µM.

The compound `CC(C)c1[nH]ncc1-c1ccnc(NC2CC2)c1` yielded a half-maximal inhibitory concentration (IC50) of less than 1 µM.

For `Cc1n[nH]cc1-c1ccnc(NCc2ccc3c(c2)OCO3)n1`, the IC50 is less than 10 µM.

The compound `CC(C)c1[nH]ncc1-c1ccnc(Nc2ccccc2)c1` registered a half-maximal inhibitory concentration (IC50) of less than 0.05 µM.

`CC(C)c1n[nH]cc1-c1ccnc(NC2CCN(Cc3ccccc3)CC2)n1`: the IC50 is less than 1 µM.

As for `COc1ccc(CNc2cc(-c3cn[nH]c3C(C)C)ccn2)cc1`, the 50% inhibitory concentration (IC50) was less than 5 µM.

As for `Cc1n[nH]cc1-c1ccnc(NC2CCN(c3ccccc3)CC2)n1`, the half-maximal inhibitory concentration (IC50) was less than 5 µM.

As to `CC(C)COCCCNc1nccc(-c2c[nH]nc2C(C)C)n1`, the 50% inhibitory concentration (IC50) was less than 5 µM.

In the case of `CC(C)c1n[nH]cc1-c1ccnc(NC2CCc3ccccc32)n1` (centres undefined), the IC50 was less than 1 µM.

On to `c1ccc2c(c1)CC(Nc1cc(-c3cn[nH]c3C3CC3)ccn1)C2`, for which the IC50 was less than 1 µM.

`CC(C)c1n[nH]cc1-c1ccnc(NCCCNC2CCCCC2)n1` yielded an IC50 of less than 10 µM.

`CCC(C)Nc1nccc(-c2c[nH]nc2C(C)C)n1` (centres undefined) yielded an IC50 of less than 0.5 µM.

For the compound `COCCNc1cc(-c2cn[nH]c2C(C)C)ccn1`, the IC50 was less than 10 µM.

For the compound `CC(C)c1[nH]ncc1-c1ccnc(NC2CCc3ccccc32)c1` (centres undefined), the half-maximal inhibitory concentration (IC50) is less than 5 µM.

`Cc1n[nH]cc1-c1ccnc(NCC(C)C)n1` came in with a 50% inhibitory concentration (IC50) of less than 5 µM.

With `Cc1n[nH]cc1-c1ccnc(NC2CCCCC2)n1`, the IC50 is less than 5 µM.

`CC(C)c1[nH]ncc1-c1ccnc(NCc2cccc(C(F)(F)F)c2)c1` came in with an IC50 of less than 5 µM.

Compound `c1cncc(CCNc2cc(-c3cn[nH]c3C3CCCC3)ccn2)c1` registered a concentration for half-maximal inhibition (IC50) of less than 5 µM.

Regarding `CC(C)c1[nH]ncc1-c1ccnc(NCCCn2ccnc2)c1`, the half-maximal inhibitory concentration (IC50) was less than 1 µM.

With `CC(C)c1[nH]ncc1-c1ccnc(NCc2ccc(F)cc2)c1`, the IC50 is less than 5 µM.

`CCC(C)c1[nH]ncc1-c1ccnc(NCc2ccccc2C)c1` (centres undefined) came in with an IC50 of less than 5 µM.

Take `Cc1n[nH]cc1-c1ccnc(NCc2ccc(F)cc2)n1`: the IC50 was less than 10 µM.

In the case of `CC(C)c1n[nH]cc1-c1ccnc(NC2CCc3cc(Cl)ccc32)n1` (centres undefined), the IC50 is less than 0.5 µM.

Take `Cc1ccccc1CNc1cc(-c2cn[nH]c2C(C)C)ccn1`: the IC50 was less than 5 µM.

For `CCC(C)Nc1nccc(-c2c[nH]nc2C)n1` (centres undefined), the half-inhibitory concentration (IC50) was less than 5 µM.

In turn, `CCC(CC)c1[nH]ncc1-c1ccnc(NC2CCN(C(=O)OC(C)(C)C)CC2)c1` had an IC50 of less than 5 µM.

The compound `Cc1n[nH]cc1-c1ccnc(NC2Cc3ccccc3C2)n1` gave a 50% inhibitory concentration (IC50) of less than 5 µM.

Consider `CCC(C)Nc1cc(-c2cn[nH]c2C(C)C)ccn1` (centres undefined), for which the half-inhibitory concentration (IC50) is less than 1 µM.

As for `c1ccc(CCNc2cc(-c3cn[nH]c3C3CCCC3)ccn2)cc1`, the concentration for half-maximal inhibition (IC50) was less than 5 µM.

`COc1ccc(CNc2nccc(-c3c[nH]nc3C)n2)cc1` registered an IC50 of less than 15 µM.

`CC(C)c1n[nH]cc1-c1ccnc(NC2CCNCC2)n1` gave an IC50 of less than 1 µM.

In turn, `Cc1n[nH]cc1-c1ccnc(NC2CCN(C)CC2)n1` showed a half-maximal inhibitory concentration (IC50) of less than 15 µM.

Compound `c1ccc2c(c1)CC(Nc1cc(-c3cn[nH]c3C3CCCCCC3)ccn1)C2` registered an IC50 of less than 1 µM.

As to `CC(C)c1[nH]ncc1-c1ccnc(NCCN2CCOCC2)c1`, the IC50 was less than 10 µM.

In the case of `CCC(CC)c1[nH]ncc1-c1ccnc(NCc2ccccc2C)c1`, the IC50 was less than 5 µM.

Turning to `Cc1n[nH]cc1-c1ccnc(NCCCn2ccnc2)n1`, the IC50 was less than 10 µM.

As for `CC(C)c1[nH]ncc1-c1ccnc(NC2CCCCCC2)c1`, the 50% inhibitory concentration (IC50) was less than 0.5 µM.

`Cc1n[nH]cc1-c1ccnc(NCc2cccc(C(F)(F)F)c2)n1`: the IC50 is less than 10 µM.

`CC(C)c1[nH]ncc1-c1ccnc(NC2CCN(Cc3ccccc3)CC2)c1` displayed an IC50 of less than 15 µM.

Consider `CC(C)c1[nH]ncc1-c1ccnc(NCc2ccccc2C(F)(F)F)c1`, for which the IC50 is less than 5 µM.

Compound `CC(C)c1n[nH]cc1-c1ccnc(N[C@H](C)c2ccccn2)n1` came in with an IC50 of less than 5 µM.

`CC(C)c1n[nH]cc1-c1ccnc(NC(C)c2ccccc2)n1` (centres undefined) came in with a half-inhibitory concentration (IC50) of less than 5 µM.

On to `CCC(CC)c1[nH]ncc1-c1ccnc(NC2CCc3ccccc32)c1` (centres undefined), for which the IC50 was less than 5 µM.

As for `CC(C)c1n[nH]cc1-c1ccnc(NCCCN(C)C)n1`, the 50% inhibitory concentration (IC50) is less than 10 µM.

Take `CCC(CC)c1[nH]ncc1-c1ccnc(NC2CCN(C)CC2)c1`: the concentration for half-maximal inhibition (IC50) was less than 10 µM.

`COc1ccccc1CNc1nccc(-c2c[nH]nc2C)n1` displayed a 50% inhibitory concentration (IC50) of less than 15 µM.

The compound `Cc1cc(C)n(CCNc2nccc(-c3c[nH]nc3C(C)C)n2)n1` gave a half-inhibitory concentration (IC50) of less than 15 µM.

For the compound `Cc1n[nH]cc1-c1ccnc(NC2CCc3ccccc32)n1` (centres undefined), the IC50 is less than 10 µM.

Turning to `Cc1n[nH]cc1-c1ccnc(NCCC#N)n1`, the IC50 is less than 15 µM.

`CC(C)c1n[nH]cc1-c1ccnc(NC2CCCCC2)n1` registered a half-maximal inhibitory concentration (IC50) of less than 0.05 µM.

In the case of `Cc1n[nH]cc1-c1ccnc(NCc2ccccc2)n1`, the 50% inhibitory concentration (IC50) was less than 15 µM.

Compound `CCC(Nc1nccc(-c2c[nH]nc2C(C)C)n1)c1ccccc1` (centres undefined) registered a half-maximal inhibitory concentration (IC50) of less than 5 µM.

Compound `CC(C)c1n[nH]cc1-c1ccnc(NCc2ccccc2Cl)n1` gave a half-inhibitory concentration (IC50) of less than 1 µM.

The compound `Cc1n[nH]cc1-c1ccnc(NCc2cccnc2)n1` registered an IC50 of less than 10 µM.

As for `CC(C)c1n[nH]cc1-c1ccnc(NCc2ccccc2F)n1`, the IC50 is less than 0.5 µM.

Take `c1cc(-c2cn[nH]c2C2CCCC2)cc(NCC2CC2)n1`: the half-maximal inhibitory concentration (IC50) is less than 5 µM.

Turning to `Cc1n[nH]cc1-c1ccnc(NC2CCC2)n1`, the IC50 is less than 5 µM.

In the case of `CC(C)c1[nH]ncc1-c1ccnc(NCCc2ccccc2)c1`, the half-maximal inhibitory concentration (IC50) was less than 1 µM.

Regarding `FC(F)(F)c1ccccc1CNc1cc(-c2cn[nH]c2C2CCCC2)ccn1`, the concentration for half-maximal inhibition (IC50) is less than 5 µM.

With `CC(C)c1n[nH]cc1-c1ccnc(NC2CCN(c3ccccc3)CC2)n1`, the concentration for half-maximal inhibition (IC50) is less than 0.5 µM.

Turning to `CC(C)c1[nH]ncc1-c1ccnc(NCCCO)c1`, the concentration for half-maximal inhibition (IC50) is less than 5 µM.

As for `CC(C)c1n[nH]cc1-c1ccnc(NC2CCCc3ccccc32)n1` (centres undefined), the IC50 is less than 1 µM.

Regarding `Cc1ccccc1CNc1cc(-c2cn[nH]c2C2CCCC2)ccn1`, the IC50 was less than 5 µM.

`CC(C)c1[nH]ncc1-c1ccnc(NC2CCC2)c1` gave a concentration for half-maximal inhibition (IC50) of less than 0.5 µM.

Take `CC(C)CNc1nccc(-c2c[nH]nc2C(C)C)n1`: the IC50 was less than 0.1 µM.

`Cc1n[nH]cc1-c1ccnc(NCC2CCCCCC2)n1` returned an IC50 of less than 15 µM.

For `Cc1n[nH]cc1-c1ccnc(NCCc2ccccc2)n1`, the half-maximal inhibitory concentration (IC50) is less than 10 µM.

Compound `Cc1n[nH]cc1-c1ccnc(NCC2CC2)n1` displayed an IC50 of less than 10 µM.

Compound `CC(C)c1n[nH]cc1-c1ccnc(NC2CC(C)(C)c3ccccc32)n1` (centres undefined) showed a half-maximal inhibitory concentration (IC50) of less than 5 µM.

Regarding `c1cc(-c2cn[nH]c2C2CCCC2)cc(NC2CCC2)n1`, the IC50 was less than 0.5 µM.

`Cc1n[nH]cc1-c1ccnc(NC2CC2)n1` came in with a concentration for half-maximal inhibition (IC50) of less than 10 µM.

Regarding `CC(C)c1n[nH]cc1-c1nc(NC2CCN(C)CC2)ncc1Br`, the IC50 is less than 5 µM.

Consider `CC(C)c1n[nH]cc1-c1ccnc(NC2CCc3cc(F)ccc32)n1` (centres undefined), for which the half-inhibitory concentration (IC50) is less than 0.5 µM.

The compound `CC(C)c1[nH]ncc1-c1ccnc(NCc2ccco2)c1` yielded a concentration for half-maximal inhibition (IC50) of less than 5 µM.

As for `CC(C)c1n[nH]cc1-c1ccnc(N[C@@H](C)c2ccccc2)n1`, the half-maximal inhibitory concentration (IC50) was less than 10 µM.

Regarding `CC(C)c1nn(C)cc1-c1ccnc(NC2CCN(C)CC2)n1`, the half-maximal inhibitory concentration (IC50) was less than 5 µM.

`c1ccc2c(c1)CCC2Nc1cc(-c2cn[nH]c2C2CC2)ccn1` (centres undefined) returned a half-inhibitory concentration (IC50) of less than 5 µM.

`CC(C)c1n[nH]cc1-c1ccnc(N[C@H]2CCc3ccccc32)n1` registered a 50% inhibitory concentration (IC50) of less than 0.5 µM.

Compound `CC(C)c1[nH]ncc1-c1ccnc(NCCOc2ccccc2)c1` displayed an IC50 of less than 10 µM.

`Cc1cnc(NC2CCN(C)CC2)nc1-c1c[nH]nc1C(C)C` returned a half-maximal inhibitory concentration (IC50) of less than 5 µM.

`COCCCNc1cc(-c2cn[nH]c2C(C)C)ccn1` gave a half-maximal inhibitory concentration (IC50) of less than 5 µM.

The values above are taken from the Kinase Knowledgebase extract (Sharma et al. 2016).
